Tests used:
active GLP-1 in plasma [1] = experiment: GLP-1 secretion-stimulating action by combined use of DPP4 inhibitor and sweetener (3), Example 5; type: in vivo, mouse; conditions: C57BL/6J mice, mean ± SEM, n = 5
Description: Purified water was administered orally (10 mL/kg) as a control.
D-mannitol (Wako Pure Chemical Industries, Ltd.) at 3 g/kg, melibiose (Wako Pure Chemical Industries, Ltd.) at 6 g/kg or acesulfame K (Wako Pure Chemical Industries, Ltd.) at 3 g/kg was used as sweetener and administered orally (10 mL/kg). Purified water was administered orally (10 mL/kg) as a control.

[2] = Body weight-reducing test using DIO mice (2), Example 6; type: in vivo, mouse; conditions: for Body weight gain after 12 days / Body weight gain after 13 days: high fat diet-fed C57BL/6J mice, mean ± SEM, n = 9; for body weights as compared with the control group / fat mass (g) as compared with the control group / lean mass (g) in comparison with the control group: sweetener 5 w/w % combined with Compound A′ 10 mg/100 g in-feed; for body weights as compared with the control group: each of days 2 to 13 (or day 12) after dosing; for fat mass (g) as compared with the control group / lean mass (g) in comparison with the control group: body composition 15 days after dosing
Description: Testing was carried out in the same manner as (1) of Example 3 above. High fat diet-fed, male C57BL/6J mice housed until age 14 to 22 weeks were used in the test.
The study animals were used in the test after first grouping according to body weight and blood sugar level.
The animals were administered test DPP4 inhibitor and test sweetener in-feed for up to 15 days.
Body weights and food intake were measured over time after the start of administration of the test substances. Testing and analysis of measurement results were carried out in the same manner as (1) of Example 3 above.
In addition, in the case body weight reducing effect was observed, body composition was measured in the same manner as (1) of Example 3 above.
D-mannitol (Wako Pure Chemical Industries, Ltd.), melibiose (Wako Pure Chemical Industries, Ltd.) or acesulfame K (Wako Pure Chemical Industries, Ltd.) was used as sweetener and each was administered in-feed at 5 w/w %. In addition, Compound A′ was administered as DPP4 inhibitor in-feed at 10 mg/100 g.
Body weight reducing-effect was tested for the cases of combined use of each of these sweeteners and DPP4 inhibitor in accordance with the method described in (1) above (n=9 animals per group).

active GLP-1 in plasma [3] = experiment: GLP-1 secretion-stimulating action by combined use of DPP4 inhibitor and sweetener (2), Example 4; type: in vivo, mouse; conditions: 1 hour after dosing, relative to 100 for Compound A′ and fructooligosaccharide 6 g/kg, C57BL/6J mice
Description: Male C57BL/6J mice (Clea Japan, Inc.) (7-week-old at time of use) were used in the test.
These study animals were used in the test after first fasting starting on the night prior to the test and then grouping according to body weight. The animals were orally administered test DPP4 inhibitor (or purified water as a control) (10 mL/kg). At 30 minutes after administration, the animals were then orally administered (10 mL/kg) a solution of test sweetener (or purified water as a control) followed by collecting blood samples at 0, 30, 60, 180 and 300 minutes after administration. These samples were then measured for concentrations of active GLP-1 in plasma.
Measurement of plasma active GLP-1 concentrations and analysis and testing of the measurement results were carried out in the same manner as (1) of Example 1 above.
Fructooligosaccharide (Meiji Seika Kaisha Ltd.), kestose (Meiji Seika Kaisha Ltd., GF2), raffinose (Wako Pure Chemical Industries, Ltd.), melibiose (Wako Pure Chemical Industries, Ltd.), xylooligosaccharide (Suntory Ltd.), xylose (Wako Pure Chemical Industries, Ltd.), xylitol (Wako Pure Chemical Industries, Ltd.), sorbitol (Wako Pure Chemical Industries, Ltd.), D-mannitol (Wako Pure Chemical Industries, Ltd.), erythritol (Wako Pure Chemical Industries, Ltd.), maltitol (Hayashibara Biochemical Laboratories, Inc.), sucralose (San-Ei Gen F.F.I., Inc.) or acesulfame K (Wako Pure Chemical Industries, Ltd.) was used as sweetener and administered orally (10 mL/kg) at 6 g/kg, 3 g/kg or 1 g/kg.
In addition, (2S)-2-cyano-1-[trans-4-(dimethylaminocarbonyl)cyclohexylamino]acetylpyrrolidine benzenesulfonate (hereafter referred to as Compound A′) as DPP4 inhibitor (or purified water as a control) was used at 10 mg/kg and administered orally (10 mL/kg).
Blood active GLP-1 level-increasing action was tested for the cases of combined use of DPP4 inhibitor and each type of sweetener in accordance with the method described in (1) above (n=4 to 5 animals per group).
Blood active GLP-1 concentrations (1 hour after dosing) in the groups dosed with both each type of sweetener (6 g/kg, 3 g/kg or 1 g/kg) and Compound A′ (10 mg/kg) were represented as relative values with respect to blood active GLP-1 concentrations (1 hour after dosing) in the group dosed with fructooligosaccharide (6 g/kg) and Compound A′.

[4] = Body weight-reducing test using DIO mice (3), Example 7; type: in vivo, mouse; conditions: for Body weight gain After 8 days / Body weight gain After 15 days: sweetener in feed at 5 w/w % combined with Compound A′ in feed at 10 mg/100 g, high fat diet-fed C57BL/6J mice, mean ± SEM, n = 7
Description: Testing was carried out in the same manner as (1) of Example 3 above. High fat diet-fed, male C57BL/6J mice housed until age 16 weeks were used in the test.
The study animals were used in the test after first grouping according to body weight.
The animals were administered test DPP4 inhibitor and test sweetener in-feed for up to 15 days. Body weights and food intake were measured over time after the start of administration of the test substances.
Sorbitol (Wako Pure Chemical Industries, Ltd.) or erythritol (Wako Pure Chemical Industries, Ltd.) was used as sweetener and each was administered in-feed at 5 w/w %. In addition, Compound A′ was administered as DPP4 inhibitor in-feed at 10 mg/100 g. Body weight reducing effect was tested for the cases of combined use of each of these sweeteners and DPP4 inhibitor in accordance with the method described in (1) above (n=7 animals per group).

GLP-1 = conditions: Shima et al., Acta Endocrinologica 1990; cited from earlier work
[5] = DPP4 inhibitor 10 mg/kg orally combined with acesulfame K 3 g/kg orally
[6] = Compound A′ alone in feed at 10 mg/100 g
[7] = sweetener alone 5 w/w % in-feed
[8] = sweetener alone in feed at 5 w/w %
[9] = sweetener in feed at 5 w/w % combined with Compound A′ in feed at 10 mg/100 g
[10] = sweetener 6 g/kg orally combined with Compound A′ 10 mg/kg orally
[11] = sweetener 5 w/w % combined with Compound A′ 10 mg/100 g in-feed
[12] = sweetener alone, separate tests
[13] = sweetener 3 g/kg orally combined with Compound A′ 10 mg/kg orally
[14] = sweetener 3 g/kg orally alone (purified water instead of DPP4 inhibitor)

For `CN(C)C(=O)[C@H]1CC[C@H](NCC(=O)N2CCC[C@H]2C#N)CC1.O=S(=O)(O)c1ccccc1` (relative stereo) [Compound A′, (2S)-2-cyano-1-[trans-4-(dimethylaminocarbonyl)cyclohexylamino]acetylpyrrolidine benzenesulfonate], the “Increase in AUC of Plasma active GLP-1” value (active GLP-1 in plasma [1]; DPP4 inhibitor 10 mg/kg orally combined with D-mannitol 3 g/kg orally) was 170 ± 27 pM·h, the “Increase in AUC of Plasma active GLP-1” value (active GLP-1 in plasma [1]; [5]) was 142 ± 11 pM·h and the “Increase in AUC of Plasma active GLP-1” value (active GLP-1 in plasma [1]; DPP4 inhibitor 10 mg/kg orally combined with melibiose 6 g/kg orally) was 228 ± 32 pM·h. For the same compound, the “body weight as compared with the control group” value ([2]; Compound A′ alone 10 mg/100 g in-feed) was “no changes in body weight as compared with the control group”, the “Body weight gain after 12 days” value [2, 6] was 0.6 ± 0.1 g and the “Body weight gain after 13 days” value [2, 6] was 2.0 ± 0.3 g.

With `O=C[C@H](O)[C@@H](O)[C@H](O)[C@H](O)CO[C@H]1O[C@H](CO)[C@H](O)[C@H](O)[C@H]1O` [Melibiose, α-D-galactopyranosyl-(1→6)-D-glucose] the “Increase in AUC of Plasma active GLP-1” value (active GLP-1 in plasma [1]; sweetener 6 g/kg orally alone (purified water instead of DPP4 inhibitor)) was 95 ± 2 pM·h, the “body weights as compared with the control group” value [2] was “body weights significantly decreased as compared with the control group” and the “body weight as compared with the control group” value [2, 7] was “no significant differences as compared with the control group”. For the same compound, the “Body weight gain after 13 days” value [2, 8] was 2.2 ± 0.2 g, the “Body weight gain after 13 days” value [2, 9] was 0.9 ± 0.4 g and the “Plasma active GLP-1 concentration (relative value)” value (active GLP-1 in plasma [3]; [10]) was 454.

With `OC[C@H]1O[C@H](OC[C@H]2O[C@H](O[C@]3(CO)O[C@H](CO)[C@@H](O)[C@@H]3O)[C@H](O)[C@@H](O)[C@@H]2O)[C@H](O)[C@@H](O)[C@H]1O` [Raffinose, β-D-fructofuranosyl α-D-galactopyranosyl-(1→6)-α-D-glucopyranoside] the “Plasma active GLP-1 concentration (relative value)” value (active GLP-1 in plasma [3]; [10]) was 77.

With `OC[C@@H](O)[C@@H](O)CO` [Erythritol, erythritol] the “body weights as compared with the control group” value [4, 11] was “decreases in body weights were observed”, the “body weights as compared with the control group” value [4, 12] was “decreases in body weights were not observed” and the “Body weight gain After 8 days” value [4] was 0.2 ± 0.1 g. For the same compound, the “Body weight gain After 15 days” value [4] was 0.9 ± 0.3 g, the “Plasma active GLP-1 concentration (relative value)” value (active GLP-1 in plasma [3]; [13]) was 147 and the “Plasma active GLP-1 concentration (relative value)” value (active GLP-1 in plasma [3]; [10]) was 461.

In the case of `OC[C@H]1O[C@H](O[C@H]2[C@H](O)[C@@H](O)C(O)O[C@@H]2CO)[C@H](O)[C@@H](O)[C@@H]1O` (mixture of isomers) [maltose], the “blood GLP-1 levels following administration” value (GLP-1) is given as “blood GLP-1 levels are increased”.

With `CC1=CC(=O)NS(=O)(=O)O1` [Acesulfame K, acesulfame potassium] the “Increase in AUC of Plasma active GLP-1” value (active GLP-1 in plasma [1]; [14]) was 51 ± 1 pM·h, the “fat mass (g) as compared with the control group” value [2] was “decreased significantly” and the “lean mass (g) in comparison with the control group” value [2] was “no change in lean mass”. For the same compound, the “body weights as compared with the control group” value [2] was “body weights significantly decreased as compared with the control group”, the “body weight as compared with the control group” value [2, 7] was “no significant differences as compared with the control group” and the “Body weight gain after 12 days” value [2, 8] was -0.5 ± 0.3 g. For the same compound, the “Body weight gain after 12 days” value [2, 9] was -1.0 ± 0.4 g, the “Plasma active GLP-1 concentration (relative value)” value (active GLP-1 in plasma [3]; sweetener 1 g/kg orally combined with Compound A′ 10 mg/kg orally) was 149 and the “Plasma active GLP-1 concentration (relative value)” value (active GLP-1 in plasma [3]; [13]) was 377.

With `CCC(=O)N1CCN(C2CCC(C)(NCC(=O)N3CCC[C@H]3C#N)CC2)CC1` (stereo partly drawn) [Compound B, (2S)-2-cyano-1-[t-4-(4-propionyl-1-piperazinyl)-1-methyl-r-1-cyclohexylamino]acetyl pyrrolidine] the “Increase in AUC of Plasma active GLP-1” value (active GLP-1 in plasma [1]; [5]) was 153 ± 14 pM·h.

For `OC[C@H]1O[C@H](O[C@]2(CCl)O[C@H](CCl)[C@@H](O)[C@@H]2O)[C@H](O)[C@@H](O)[C@H]1Cl` [Sucralose, sucralose], the “Plasma active GLP-1 concentration (relative value)” value (active GLP-1 in plasma [3]; [10]) was 166.

With `OC[C@H]1O[C@@](CO)(OC[C@@]2(O[C@H]3O[C@H](CO)[C@@H](O)[C@H](O)[C@H]3O)O[C@H](CO)[C@@H](O)[C@@H]2O)[C@@H](O)[C@@H]1O` [Kestose, glucose-1,2-fructose-1,2-fructose] the “Plasma active GLP-1 concentration (relative value)” value (active GLP-1 in plasma [3]; [10]) was 166.

For `OC[C@@H](O)[C@@H](O)[C@H](O)[C@@H](O)CO` [Sorbitol, sorbitol], the “body weights as compared with the control group” value [4, 11] was “decreases in body weights were observed”, the “body weights as compared with the control group” value [4, 12] was “decreases in body weights were not observed” and the “Body weight gain After 8 days” value [4] was -0.7 ± 0.4 g. The “Body weight gain After 15 days” value [4] was 0.8 ± 0.3 g, the “Plasma active GLP-1 concentration (relative value)” value (active GLP-1 in plasma [3]; [13]) was 286 and the “Plasma active GLP-1 concentration (relative value)” value (active GLP-1 in plasma [3]; [10]) was 863.

For `OC[C@@H](O)[C@@H](O)[C@H](O)[C@H](O)CO` [D-mannitol], the “Increase in AUC of Plasma active GLP-1” value (active GLP-1 in plasma [1]; [14]) was 85 ± 1 pM·h, the “fat mass (g) as compared with the control group” value [2] was “decreased significantly” and the “lean mass (g) in comparison with the control group” value [2] was “no change in lean mass”. The “body weights as compared with the control group” value [2] was “body weights significantly decreased as compared with the control group”, the “body weight as compared with the control group” value [2, 7] was “no significant differences as compared with the control group” and the “Body weight gain after 13 days” value [2, 8] was 1.1 ± 0.5 g. For the same compound, the “Body weight gain after 13 days” value [2, 9] was 0.2 ± 0.7 g, the “Plasma active GLP-1 concentration (relative value)” value (active GLP-1 in plasma [3]; [13]) was 160 and the “Plasma active GLP-1 concentration (relative value)” value (active GLP-1 in plasma [3]; [10]) was 742.
